# Biological target: T1, recombinant glucosyltransferase domain of C. difficile Toxin B/TcdB (Clostridioides difficile, UniProt P18177)
# T1 construct: 6-His (C); purchased R&D Systems 6246-GT
# Test: biochemical
# T1 sequence (P18177 1-543): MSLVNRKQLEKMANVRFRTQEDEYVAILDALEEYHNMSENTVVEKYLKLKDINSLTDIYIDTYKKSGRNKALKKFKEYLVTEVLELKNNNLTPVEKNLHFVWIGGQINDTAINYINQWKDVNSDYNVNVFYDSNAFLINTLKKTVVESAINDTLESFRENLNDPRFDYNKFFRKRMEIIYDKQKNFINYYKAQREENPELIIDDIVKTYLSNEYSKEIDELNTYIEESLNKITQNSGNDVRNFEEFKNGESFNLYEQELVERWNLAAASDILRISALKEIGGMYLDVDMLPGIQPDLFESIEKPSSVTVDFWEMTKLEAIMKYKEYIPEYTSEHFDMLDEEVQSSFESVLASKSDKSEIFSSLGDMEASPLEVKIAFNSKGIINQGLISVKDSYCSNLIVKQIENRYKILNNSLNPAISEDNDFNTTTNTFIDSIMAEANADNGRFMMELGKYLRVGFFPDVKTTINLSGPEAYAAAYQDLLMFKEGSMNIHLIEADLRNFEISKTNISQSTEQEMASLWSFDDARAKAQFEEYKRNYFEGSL
row,SMILES,IC50 [nM]
1,"Cc1cnc(NC(=O)c2ccc(CN3C(=O)c4ccc(Cl)cc4NC(=O)[C@H]3Cc3ccccn3)cc2)s1 [Example 4bw, (R)-4-((8-chloro-2,5-dioxo-3-(pyridin-2-ylmethyl)-2,3-dihydro-1H-benzo[e][1,4]diazepin-4(5H)-yl)methyl)-N-(5-methylthiazol-2-yl)benzamide]",< 100
2,O=C(O)c1ccc(CN2C(=O)c3ccc(Cl)cc3NC(=O)[C@H]2Cc2cscn2)cc1 [Example 1m],1000 to 10000
3,"O=C(Nc1nccs1)c1ccc(CN2C(=O)c3ccc(Cl)cc3NC(=O)[C@H]2Cc2cccnc2)cc1 [Example 4c, (R)-4-((8-chloro-2,5-dioxo-3-(pyridin-3-ylmethyl)-2,3-dihydro-1H-benzo[e][1,4]diazepin-4(5H)-yl)methyl)-N-(thiazol-2-yl)benzamide]",< 100
4,"COc1cnc(NC(=O)c2ccc(CN3C(=O)c4ccc(Cl)cc4NC(=O)[C@H]3Cc3ccccn3)cc2)nc1 [Example 5a, (R)-4-((8-chloro-2,5-dioxo-3-(pyridin-2-ylmethyl)-2,3-dihydro-1H-benzo[e][1,4]diazepin-4(5H)-yl)methyl)-N-(5-methoxypyrimidin-2-yl)benzamide]",< 100
5,"Cc1ccc(Nc2nn(C)c3cc(CN4C(=O)c5ccc(Cl)cc5NC(=O)[C@H]4Cc4ccccn4)ccc23)nc1 [Example 44a, (R)-8-Chloro-4-((1-methyl-3-((5-methylpyridin-2-yl)amino)-1H-indazol-6-yl)methyl)-3-(pyridin-2-ylmethyl)-3,4-dihydro-1H-benzo[e][1,4]diazepine-2,5-dione]",100 to 999
6,"O=C(Nc1ccccn1)c1ccc(CN2C(=O)c3ccc([N+](=O)[O-])cc3NC(=O)[C@H]2Cc2ccc(Cl)c(Cl)c2)cc1 [Example 4ae, (R)-4-((3-(3,4-dichlorobenzyl)-8-nitro-2,5-dioxo-2,3-dihydro-1H-benzo[e][1,4]diazepin-4(5H)-yl)methyl)-N-(pyridin-2-yl)benzamide]",100 to 999
7,"COc1cnc(NC(=O)c2ccc(CN3C(=O)c4ccc(Cl)cc4NC(=O)[C@H]3Cc3ccccn3)s2)nc1 [Example 5r, (R)-5-((8-chloro-2,5-dioxo-3-(pyridin-2-ylmethyl)-2,3-dihydro-1H-benzo[e][1,4]diazepin-4(5H)-yl)methyl)-N-(5-methoxypyrimidin-2-yl)thiophene-2-carboxamide]",100 to 999
8,"C[C@@H]1C(=O)Nc2cc(Cl)ccc2C(=O)N1Cc1ccc(C(=O)Nc2ccc(N3CCOCC3)cn2)cc1 [Example 4bf, (R)-4-((8-chloro-3-methyl-2,5-dioxo-2,3-dihydro-1H-benzo[e][1,4]diazepin-4(5H)-yl)methyl)-N-(5-morpholinopyridin-2-yl)benzamide]",100 to 999
9,Cn1cnc(C(=O)c2ccc(CN3C(=O)c4ccc(Cl)cc4NC(=O)[C@H]3Cc3ccccn3)cc2)c1 [Example 31d],100 to 999
10,"O=C(Nc1ccccn1)c1ccc(CN2C(=O)c3ccc(F)cc3NC(=O)[C@H]2Cc2ccc(Cl)c(Cl)c2)cc1 [Example 4q, (R)-4-((3-(3,4-dichlorobenzyl)-8-fluoro-2,5-dioxo-2,3-dihydro-1H-benzo[e][1,4]diazepin-4(5H)-yl)methyl)-N-(pyridin-2-yl)benzamide]",100 to 999
11,O=C(Nc1ccccn1)c1ccc(CN2C(=O)c3ccc(Cl)cc3NC(=O)[C@H]2Cc2cccc(F)c2)cc1 [Example 35j],< 100
12,O=C(Nc1ccc(CN2C(=O)c3ccc(Cl)cc3NC(=O)[C@H]2Cc2ccccn2)cc1)c1ccccn1 [Example 26b],< 100
13,"Cc1cnc(NC(=O)c2ccc(CN3C(=O)c4ccc(Cl)cc4NC(=O)[C@H]3Cc3ccccn3)cc2C)nc1 [Example 5ag, (R)-4-((8-chloro-2,5-dioxo-3-(pyridin-2-ylmethyl)-2,3-dihydro-1H-benzo[e][1,4]diazepin-4(5H)-yl)methyl)-2-methyl-N-(5-methylpyrimidin-2-yl)benzamide]",< 100
14,COc1ccc(C[C@@H]2C(=O)Nc3cc(Cl)ccc3C(=O)N2Cc2ccc(C(=O)Nc3ccccn3)cc2)cc1 [Example 35d],100 to 999

# — US10669242B2 (priority 2016, dated 2020)
